The values that follow come from ChEMBL document CHEMBL1142367, “1H-Pyrazolo[3,4-g]hexahydro-isoquinolines as selective glucocorticoid receptor antagonists with high functional activity” (Bioorg Med Chem Lett, 2008).

Structures are written as SMILES.

The nature of data set [1]: Cmax in rat at 5 mg/kg, po. It counts as ADME, organism-based. Also on record: dose 5 mg/kg, route oral. The following applies: in vivo.
Data set [2] addresses T1, Glucocorticoid receptor (Homo sapiens, UniProt P04150).
T1 sequence (P04150 whole entry): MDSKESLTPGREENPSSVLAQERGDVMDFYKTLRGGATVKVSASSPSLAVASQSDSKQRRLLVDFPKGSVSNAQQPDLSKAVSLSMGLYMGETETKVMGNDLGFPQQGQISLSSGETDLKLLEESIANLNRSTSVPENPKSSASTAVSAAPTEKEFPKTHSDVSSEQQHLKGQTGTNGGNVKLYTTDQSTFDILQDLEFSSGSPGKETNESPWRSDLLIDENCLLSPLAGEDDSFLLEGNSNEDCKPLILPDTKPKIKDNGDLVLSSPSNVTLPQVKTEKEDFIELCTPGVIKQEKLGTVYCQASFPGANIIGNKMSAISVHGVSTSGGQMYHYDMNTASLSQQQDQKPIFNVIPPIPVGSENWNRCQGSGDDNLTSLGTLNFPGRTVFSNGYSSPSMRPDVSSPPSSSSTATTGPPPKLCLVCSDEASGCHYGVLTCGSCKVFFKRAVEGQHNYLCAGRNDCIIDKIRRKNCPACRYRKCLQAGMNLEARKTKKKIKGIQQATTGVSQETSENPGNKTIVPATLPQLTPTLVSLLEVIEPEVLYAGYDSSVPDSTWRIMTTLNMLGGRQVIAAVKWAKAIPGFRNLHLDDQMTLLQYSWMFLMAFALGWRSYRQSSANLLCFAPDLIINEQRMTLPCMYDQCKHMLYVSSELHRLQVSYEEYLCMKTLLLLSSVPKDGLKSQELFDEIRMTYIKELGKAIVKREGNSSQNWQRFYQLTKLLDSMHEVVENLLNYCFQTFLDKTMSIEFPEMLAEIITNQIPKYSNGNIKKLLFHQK
The data set can be described thus: Displacement of [3H]dexamethasone from human recombinant GR. A general note: Displacement assays read how much labelled ligand stays bound in the presence of the test substance.

A short description of data set [3]: Ratio of drug level in brain to plasma in rat at 5 mg/kg, po. It counts as ADME, organism-based. Also on record: dose 5 mg/kg, route oral. As to conditions: read-out: BPR.
Data set [4] can be described thus: Cmax in dog at […], po. It counts as ADME, organism-based, Canis lupus familiaris. Also noted: dose 2.5 mg/kg, route oral. As to conditions: in vivo.
Data set [5] has as its target T1, Glucocorticoid receptor. The data set can be described thus: Antagonist activity at GR in SW1353/MMTV5 cells assessed as inhibition of dexamethasone-induced luciferase expression. The format is functional, cell-based.
Data set [6] concerns Canis familiaris. The data set can be described thus: AUC in dog at […], po. Also noted: dose 2.5 mg/kg, route oral. The format is ADME, organism-based, Canis lupus familiaris, Plasma. The following applies: in vivo.
Data set [7] is described as follows: Oral bioavailability in dog at […]. As to conditions: in vivo. It counts as ADME, organism-based, Canis lupus familiaris.
Data set [8] in a line: Oral bioavailability in rat at 5 mg/kg. The format is ADME, organism-based. The following applies: in vivo.
Data set [9] is described as follows: Half life in rat at 5 mg/kg, po. It counts as ADME, organism-based. Also on record: dose 5 mg/kg, route oral. The following applies: in vivo.
Data set [10] in a line: Half life in dog at […], po. The following applies: in vivo. The format is ADME, organism-based, Canis lupus familiaris. Also noted: dose 2.5 mg/kg, route oral.
The test system of data set [11] is Rattus norvegicus. The data set can be described thus: AUC in rat at 5 mg/kg, po. It counts as ADME, organism-based, Plasma. Also on record: dose 5 mg/kg, route oral. The following applies: in vivo.
Data set [12] is described as follows: Metabolic stability in human liver microsomes after 30 mins. As to conditions: read-out: Stability. The format is ADME, Microsome.

By Cmax is commonly meant the maximum level reached in the sampled fluid or tissue. As a reminder, the Ki is a measure of affinity in units of concentration, obtained from inhibition or displacement. Usually bioavailability stands for the share of a dose that reaches the circulation, judged against a reference dose that is usually intravenous. A low value points to poor availability. In general, half-life refers to how long it takes for the measured level to halve. The low end stands for fast loss, the high end for slow loss. On to `COC[C@]12Cc3cnn(-c4ccc(F)cc4)c3C=C1CCN(S(=O)(=O)c1ccccc1)C2`, for which the Cmax in data set [1] came to 23 ng/mL; in [4], 258 ng/mL. Moreover, the Ki in data set [2] is 1 nM; in [5], 20 nM. Besides, the Kp in [3] turned out to be 0.75. Besides, the AUC is 0.894 µg/h/mL in [6] and 0.112 µg/h/mL in data set [11]. Moreover, the results for the bioavailability in [7] and in [8] were 20% and 3%, respectively. The half-life is 3.6 h in data set [9] and 5.9 h in data set [10].

For `COC[C@]12Cc3cnn(-c4ccc(F)cc4)c3C=C1CCN(S(=O)(=O)c1ccc(F)cc1)C2`, in data set [12], the remaining at 0.5 h was 57%. For the same compound, the Cmax in [1] is 106 ng/mL; in data set [4] it was 381 ng/mL. For the same compound, the Ki in data set [2] came out at 1.4 nM; in data set [5] it was 33 nM. Moreover, the Kp in data set [3] was determined as 1.1. Further, the values for the AUC in [6] and in [11] were 1.676 µg/h/mL and 0.621 µg/h/mL, respectively. The bioavailability in data set [7] came to 54%; in data set [8], 22%. Besides, the half-life in data set [9] is 2.1 h; in data set [10], 4.2 h.

As for `COC[C@]12Cc3cnn(-c4ccc(F)cc4)c3C=C1CCN(S(=O)(=O)c1ccc(C(F)(F)F)cc1)C2`, the Cmax in data set [1] is 163 ng/mL; in [4], 647 ng/mL. Also, the Ki was 0.8 nM in data set [2] and 28 nM in [5]. Also, the Kp in data set [3] was found to be 0.83. The AUC is 3.638 µg/h/mL in data set [6] and 0.966 µg/h/mL in [11]. Moreover, the figures for the bioavailability in data set [7] and in [8] were 58% and 16%, respectively. For the same compound, the half-life in [9] was 3.4 h; in data set [10], 6.7 h.

As for `CC(C)(C)c1ccc(S(=O)(=O)N2CCC3=Cc4c(cnn4-c4ccc(F)cc4)C[C@]3(C)C2)cc1`, the highest concentration (Cmax) in data set [1] was 199 ng/mL; in [4], 524 ng/mL. The figures for the Ki in [2] and in data set [5] were 1.2 nM and 53 nM, respectively. Further, in data set [3], the Kp came out at 0.07. Further, the figures for the AUC in data set [6] and in data set [11] were 1.684 µg/h/mL and 1.009 µg/h/mL, respectively. Besides, the bioavailability in [7] came out at 26%; in [8] it was 13%. For the same compound, the half-life in data set [9] was 2.7 h; in [10] it was 4.2 h.

For the compound `COCCOC[C@]12Cc3cnn(-c4ccc(F)cc4)c3C=C1CCN(S(=O)(=O)c1ccc(F)cc1)C2`, the remaining at 0.5 h in [12] is 7%. Moreover, the Ki in data set [2] turned out to be 0.6 nM; in data set [5], 5.2 nM.

In data set [1], `CC(C)(C)c1ccc(S(=O)(=O)N2CCC3=Cc4c(cnn4-c4ccc(F)cc4)C[C@]3(CN3CCOCC3)C2)cc1` yielded a Cmax of 75 ng/mL. For the same compound, the inhibition constant (Ki) in [2] was 0.9 nM; in data set [5], 7.1 nM. Moreover, in [3], the Kp was 0.1. The compound further showed a bioavailability in data set [8] of 10%. The compound further showed a half-life in data set [9] of 2 h. The compound also registered an AUC in [11] of 0.302 µg/h/mL.

`COC[C@]12Cc3cnn(-c4ccc(F)cc4)c3C=C1CCN(S(=O)(=O)c1ccc(C(C)(C)C)cc1)C2` returned a Cmax in data set [1] of 94 ng/mL. The Ki in data set [2] is 0.8 nM; in data set [5], 7.7 nM. Further, the Kp in data set [3] amounted to 0.1. Further, the bioavailability in data set [8] is 11%. Besides, the half-life in data set [9] is 2.9 h. This compound also displayed an AUC in [11] of 0.43 µg/h/mL.
